According to patent publication US8188141B2, “Isomigrastatin analogs in the treatment of cancer” (Sloan-Kettering Institute for Cancer Research, priority 2004, dated 2012):
Like-named read-outs stand apart in the source and are kept apart here. Values belong to the compound of their own block, whether it stands above or below them.

What was measured:
[1] = system: Ovcar3 ovarian cancer cells; assay: Chamber cell migration (transwell) assay; assay type: cell-based, human; details: for IC50: OVCAR-3; for inhibiting the migration of human ovarian cancer cells in the transwell assay: Ovcar3
Method: Cell migrations of Ovcar3 ovarian cancer cells were assayed with 8 μm of microporous 6.5-mm transwell plates (Corning). 100 wl of 5×10^4 cells in serum-free RPMI1640 medium containing 0.5% BSA were added to the upper chamber and 600 μl of medium with 10% fetal bovine serum was added to the lower chamber. Transwells were incubated for 12 hours with following concentrations of chemical compounds in both upper and lower chambers (1 nM, 10 nM, 100 nM 1 μM, 10 μM). Cells on the inside of the transwell inserts were removed with a cotton swab, and cells on the under side of the insert were fixed and stained. Photographs of three random regions were taken and the number of cells was counted to calculate the average number of cells that had transmigrated. Data shown is the average of at least three experiments.

Ovcar3 tumor cells = assay: Wound healing assay; assay type: cell-based, human; details: 250 nM
Method: The tumor cells (Ovcar3) were seeded into 24-multiwell plates (Becton-Dickinson) and cultivated until the cells formed a confluent monolayer. Wounds were set by horizontally scratching the monolayer with a sterile pipette tip. The cells were thereafter washed twice with Phosphate Buffered Saline (PBS) to remove detached cells. Growth media was then added containing 250 nM of the chemical compounds (21, 22, and 30) and incubated at 37° C. The cells were photographed at the beginning of the experiment and after 24 to assess the progression of cell migration into the wound.

[2] = system: human ovarian tumor cell line OVCAR3; assay: In vivo metastatic model (ovarian xenograph, luciferase tumor imaging); parameters: species or system mouse; details: treated mice
From the text: The human ovarian tumor cell line OVCAR3 was transduced with a triple fusion gene HSV-TK/eGFP/FLuc, expressing thymidine kinase, enhanced green fluorescence protein and firefly luciferase. Whole animal imaging by luciferase bioluminescence (FIG. 5A), allowed identification and quantification of disseminated tumor. We quantified the tumor burden in each organ, by sacrificing the mouse shortly after luciferin injecting and imaging of the dissected organs (lung, liver and spleen) (FIG. 5B). In all instances tumor engraftment was initiated with 1−5×10^7 cells and the recipients received 3 Gy irradiation 10 days before tumor engraftment. These tumor cells generated bulky omental metastases with diffuse microscopic peritoneal carcinomatosis causing ascites (FIG. 5A) with, significant pleural effusion and liver, lung and paraaortic metastases (FIG. 6).

human tumor cells [3] = details: Nakae et al., J. Antibiot., 2001; cited from earlier work
human tumor cells [4] = details: Nakae et al., J. Antibiot., 2001; cited from earlier work; remark: listed apart in the source
Stability in mice plasma = assay type: in vitro ADME
[5] = Homo sapiens, Ovcar3 cells, 12 hours, read-out: IC50, transwell assay
[6] = after 12h, human ovarian cancer cells, read-out: concentration at which 50% of the migration was inhibited in the transwell assay

Compound: COCO[C@H]1[C@H](C)COC(=O)CCCC/C=C/[C@@H]1OC [Compound 21]
IC50 [1, 5]: 75 ± 6.5 nM
IC50 [1, 6]: 75 nM
inhibiting the migration of human ovarian cancer cells in the transwell assay [1]: highly potent
closure of the scar in the wound healing assay (Ovcar3 tumor cells): inhibited the closure of the scar

Compound: CO[C@H]1/C=C/CC/C=C/C(=O)O[C@H]([C@H](C)C(=O)CCCC2CC(=O)NC(=O)C2)/C(C)=C\[C@@H](C)[C@@H]1O [Migrastatin]
migration of human tumor cells (human tumor cells [3]): inhibit
anchorage-independent growth of human tumor cells (human tumor cells [4]): inhibit

Compound: CO[C@H]1/C=C/CCCCCOC/C(C)=C\[C@@H](C)[C@@H]1O [compound 61]
stability in mice plasma (Stability in mice plasma): stable

Compound: CO[C@H]1[C@H](C)/C=C(/C)COCCCCC/C=C/[C@@H]1OC [compound 62]
IC50 [1, 5]: 180 nM

The next lines start with results.

IC50 [1, 5]: 738 ± 267 nM
Compound: CO[C@H]1/C=C/CCCCC(=O)OC[C@@H](C)[C@@H]1O [Compound 22]

IC50 [1, 5]: 27 ± 5.8 nM
IC50 [1, 6]: 27 nM
Compound: CO[C@H]1/C=C/CC/C=C/COC[C@@H](C)[C@@H]1O [Compound 30]
inhibiting the migration of human ovarian cancer cells in the transwell assay [1]: highly potent
closure of the scar in the wound healing assay (Ovcar3 tumor cells): inhibited the closure of the scar
tumor metastasis, Luciferase tumor imaging [2]: significant inhibition of tumor metastasis

IC50 [1, 5]: 180 nM
Compound: CO[C@H]1/C=C/CC/C=C/COC/C(C)=C\[C@@H](C)[C@@H]1O [compound 57]
